Reference: patent publication US20180140694A1, “DOSAGE REGIMEN FOR HIV VACCINE” (priority 2015, published 2018)

Tests used:
[1] = system: Histone H3 acetylation in lymphocytes; experiment: Histone H3 acetylation in lymphocytes by flow cytometry (REDUC); assay type: in vivo, human; conditions: REDUC Part A, following each romidepsin administration, 5 mg/m^2
Method: Histone H3 acetylation: Measured in lymphocytes using flow cytometry with intracellular cytokine stain on fresh isolated PBMCs.
Histone H3 acetylation was measured in lymphocytes using flow cytometry with intracellular cytokine staining on fresh isolated PBMCs. Freshly isolated PBMC's were fixated, permeabilised and stained with acetylation-specific antibodies, providing the possibility to evaluate epigenetic modifications on Histones (Rigby L, Muscat A, Ashley D, Algar E. Epigenetics 2012; 7(8):875-882). Briefly, PBMCs (1×10^6) were resuspended in 3 ml ice-cold PBS/1% FBS and centrifuged, then vortexed to dissolve pellet and fixative added, 100 μl 2% PFA (ice-cold), vortexed briefly and incubated on ice for 15 min. Cells were then washed in 4 ml PBS, resuspended in 200 μl PBS and stored at 4° C. until staining. Samples were washed with 3 ml FACS buffer and vortexed to dissolve cell pellet prior to adding 100 μl 0.2% Triton X-100, vortexed briefly and incubated for 10 min. at room temperature (RT). Samples were then washed with FACS buffer, 600 μl Block (PBS/10% FBS) was added, sample vortexed to resuspend cell pellet and incubated for 20 min at RT. […] Finally, samples were washed with FACS buffer and resuspended in 80 μl PBS and analyzed by FACS (50 000 events, anti-acetyl histone H3 Median Fluorescence Intensity, MFI, calculated by subtracting background MFI from isotype control).

[2] = system: HIV-1 transcription in CD4+ T cells; experiment: Cell associated unspliced HIV-1 RNA in CD4+ T cells by droplet digital PCR (REDUC); assay type: in vivo; conditions: REDUC Part A
Method: Unspliced HIV-1 RNA (copies per 10^6 CD4+ T cells): HIV transcription was measured as copies of cell-associated unspliced HIV-1 RNA/106 CD4+ T cells using digital droplet PCR.
HIV transcription was measured as copies of cell-associated unspliced HIV-1 RNA/106 CD4+ T cells using digital droplet PCR. CD4+ T-cells were isolated from PBMCs using Miltenyi Biotec negative bead separation kit (CD4 T cell isolation, #130-096-533) as described with LD separation columns, lysed (Lysis buffer from Qiagen DNA/RNA extraction kit), and stored ad −80° C. until extraction of RNA and DNA (Allprep isolation kit, Qiagen). Reverse transcription, amplification and quantitation of cell-associated unspliced HIV RNA from HIV patients was performed as follows. In summary, HIV unspliced RNA was detected on the BioRad QX100 droplet digital platform using a defined primer/probe set and related to total cell input by quantitation of the IPO8 (Importin 8) and TBP (Tata Binding Protein) gene transcription. […] After cycling droplets were subsequently read automatically by the QX100 droplet reader (BioRad) and the data was analyzed with the QuantaSoft™ analysis software (BioRad). On average, the six HIV replicates generated 80,000-98,000 droplets to be analyzed per time point.

Plasma HIV-1 RNA [3] = conditions: REDUC Part A
Method: Plasma HIV RNA, quantitative viral load: Measured by Roche VL (routine clinical assay).
(§1) Plasma HIV RNA, quantitative viral load, was measured by Cobas® TaqMan® HIV-1 Test, v2.0 (Roche) according the manufacturer's instruction (routine clinical assay). The lower limit of quantification for this assay is 20 copies HIV-1 RNA/mL, but it provides a qualitative assessment below this.

Plasma HIV-1 RNA [4] = experiment: Plasma HIV-1 RNA by transcription mediated amplification (NAT screen, PROCLEIX ULTRIO Plus); assay type: in vivo; conditions: REDUC Part A
Method: Plasma HIV-1 RNA detection by NAT screen: Measured by a transcription mediated amplification (TMA)-based methodology, usually referred to as a nucleic acid test (NAT)-screen (PROCLEIX ULTRIO Plus, Genprobe).
as §1, with “this. Plasma HIV-1 RNA was also measured by a transcription mediated amplification (TMA)-based methodology, usually referred to as a nucleic acid test (NAT)-screen (PROCLEIX ULTRIO Plus, Genprobe), according to manufacturer's instructions.” for “this.”

[5] = system: latent HIV-1 reservoir in CD4+ T cells; experiment: Total HIV-1 DNA per 10^6 CD4+ T cells by droplet digital PCR (REDUC); assay type: in vivo; conditions: REDUC Part A, romidepsin infusions without preceding vaccination
Source text: Total HIV-1 DNA (copies per 10^6 CD4+ T cells): Total HIV DNA quantifies integrated and non-integrated DNA as well as latent and defective virus. There is a strong correlation between total HIV DNA and integrated HIV DNA in patients on cART and therefore cell-associated HIV DNA is likely to be a good surrogate marker of the total number of latently infected cells [Koelsch 2008].
For HIV-1 DNA quantifications, CD4 T cells were isolated using a CD4+ T Cell Isolation Kit Miltenyi biotec, cat no 130-096-533) on LS columns (Miltenyi biotec, cat no 130-042-401). After CD4 T isolation, cells were resuspended in lysis buffer and digested as previously described [Chomont, 2009 Nat Med, 15(8): 893-900]. Cell lysates were used directly for HIV-1 DNA quantifications using the QX100™ Droplet Digital™ PCR system (Bio-Rad) to determine the absolute levels of total HIV-1 DNA per 106 CD4+ T cells [Strain et al 2013 PLOS One].

[6] = Safety and tolerability evaluation in REDUC trial (adverse events); assay type: in vivo, human
Source text: The primary endpoint of Part A was safety and tolerability; evaluation as measured by adverse events (AE), adverse reactions (AR), serious adverse events (SAE), serious adverse reactions (SAR), serious unexpected adverse reactions (SUSAR).
The primary endpoint of Part B was firstly, safety and tolerability evaluation as measured by adverse events (AE), adverse reactions (AR), serious adverse events (SAE), serious adverse reactions (SAR), serious unexpected adverse reactions (SUSAR) and dose-limiting toxicity.

[7] = REDUC Part A, romidepsin 5 mg/m^2, 6 patients

Question: For `C/C=C1\NC(=O)[C@H]2CSSCC/C=C/[C@H](CC(=O)N[C@H](C(C)C)C(=O)N2)OC(=O)[C@H](C(C)C)NC1=O` [romidepsin, (1S,4S,7Z,10S,16E,21R)-7-ethylidene-4,21-bis(1-methylethyl)-2-oxa-12,13-dithia-5,8,20,23-tetraazabicyclo[8.7.6] tricos-16-ene-3,6,9,19,22-pentone], which “Lymphocyte histone H3 acetylation, maximum fold range relative to baseline” value [1] is on record?
Answer: 3.7-7.7 fold

Question: What about the “cell-associated un-spliced HIV RNA as a result of romidepsin infusion” value [2] of the same compound?
Answer: significantly increased

Question: What about the “cell-associated un-spliced HIV-1 RNA, fold range from baseline” value ([2]; after third infusion) of the same compound?
Answer: 2.4-5.0 fold

Question: And the “extracellular HIV RNA as a result of romidepsin infusion” value (Plasma HIV-1 RNA [3])?
Answer: significantly increased

Question: And the “patients with plasma HIV-1 RNA increased to readily quantifiable levels” value (Plasma HIV-1 RNA [3]; multiple post-infusion time-points)?
Answer: 5 of 6 patients

Question: And the “plasma HIV-1 RNA” value (Plasma HIV-1 RNA [3]; range following the second infusion, <20 copies/mL at baseline)?
Answer: 46-103 copies/mL

Question: And the “Plasma HIV-1 RNA detection by transcription-mediated amplification assay, post-infusion versus baseline” value (Plasma HIV-1 RNA [4])?
Answer: detected more frequently

Question: What about the “size of the latent reservoir” value [5] of the same compound?
Answer: not affected

Question: And the adverse event grade [6, 7]?
Answer: most adverse events (AEs) were of grade 1

Question: And the serious adverse events [6, 7]?
Answer: No serious adverse events were observed

Question: And the “adverse events considered related to the agent” value ([6]; REDUC Part B, of 141 in total)?
Answer: 57 adverse events
